Columns and labels:
hFAAH = molecular target: T1, hFAAH (Homo sapiens, UniProt O00519); assay: FAAH activity assay, hFAAH-COS7 membranes (3H-anandamide); type: biochemical
T1 construct: expressed in transfected cells; host or cells: COS-7
T1 sequence (O00519 1-579): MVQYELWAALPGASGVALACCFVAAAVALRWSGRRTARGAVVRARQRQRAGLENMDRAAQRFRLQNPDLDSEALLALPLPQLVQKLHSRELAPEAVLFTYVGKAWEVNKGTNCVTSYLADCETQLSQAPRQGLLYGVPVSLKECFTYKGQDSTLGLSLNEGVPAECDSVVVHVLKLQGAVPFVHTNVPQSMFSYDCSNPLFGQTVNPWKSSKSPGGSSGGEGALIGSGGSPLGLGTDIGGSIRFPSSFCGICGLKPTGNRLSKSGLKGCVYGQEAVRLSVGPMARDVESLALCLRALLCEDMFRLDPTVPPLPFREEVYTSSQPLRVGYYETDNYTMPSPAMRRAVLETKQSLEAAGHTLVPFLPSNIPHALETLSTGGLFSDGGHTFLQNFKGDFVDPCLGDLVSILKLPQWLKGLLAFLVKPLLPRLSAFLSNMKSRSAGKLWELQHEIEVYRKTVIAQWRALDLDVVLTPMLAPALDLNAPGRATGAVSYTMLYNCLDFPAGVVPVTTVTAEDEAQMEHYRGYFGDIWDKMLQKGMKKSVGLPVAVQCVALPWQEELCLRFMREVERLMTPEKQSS

LYPLA1 = tested on: LYPLA1; set-up: method as in PMID 20418879; settings: originally reported; read-out: IC50 in vitro towards LYPLA1; cited from earlier work
hBAT5 = molecular target: T2, hBAT5 (Homo sapiens, UniProt O95870); assay: Inhibition of 1-LG hydrolysis in hBAT5-HEK293 lysates (fluorescent glycerol assay); type: biochemical; set-up: host or cells: HEK293; settings: 1-LG 25 µM; 30 min inhibitor pretreatment; monitored 90 min; mean, n=3; read-out: IC50
T2 sequence (O95870 1-558): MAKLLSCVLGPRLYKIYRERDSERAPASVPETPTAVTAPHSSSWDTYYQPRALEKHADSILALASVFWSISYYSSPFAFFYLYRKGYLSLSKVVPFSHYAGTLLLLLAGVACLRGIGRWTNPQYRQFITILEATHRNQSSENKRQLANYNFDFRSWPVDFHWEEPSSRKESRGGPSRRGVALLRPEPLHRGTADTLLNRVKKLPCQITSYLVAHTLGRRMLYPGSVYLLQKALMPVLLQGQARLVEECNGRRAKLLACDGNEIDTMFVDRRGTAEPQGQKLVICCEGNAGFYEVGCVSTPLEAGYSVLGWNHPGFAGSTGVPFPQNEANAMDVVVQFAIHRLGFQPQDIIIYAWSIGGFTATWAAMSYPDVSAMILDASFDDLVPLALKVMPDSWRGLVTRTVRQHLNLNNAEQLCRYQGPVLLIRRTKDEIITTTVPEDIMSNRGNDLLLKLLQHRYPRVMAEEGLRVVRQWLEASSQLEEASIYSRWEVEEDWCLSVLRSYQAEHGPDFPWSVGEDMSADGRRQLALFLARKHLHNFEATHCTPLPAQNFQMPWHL

## CCCCCCCCCC[C@@H]1C(=O)O[C@H]1CCc1ccc(OC)c(OC)c1 [Palmostatin B, palmostatin B]
hFAAH
  sensitivity of hFAAH (in words): resistant
hFAAH; at 10^−6 M
  remaining activity at 1 µM: 92.4%
LYPLA1
  IC50: 670 nM
hBAT5
  IC50: 100 nM
